According to article PMC5461114, “A bioactive peptide amidating enzyme is required for ciliogenesis” (eLife, 2017):

Tests used:
CrPAM (PHM activity) = target: T1, CrPAM (PHM activity) (Chlamydomonas reinhardtii, UniProt A0A0S2C767); test: PHM activity assay in cell lysate; type: biochemical; conditions: mechanism-based PHM inhibitor; PBA added to lysate; vehicle ethanol
T1 construct: gene PAM; native full-length bifunctional membrane PAM (110 kDa) in detergent cell lysate; PHM domain activity measured
T1 sequence (A0A0S2C767 22-926): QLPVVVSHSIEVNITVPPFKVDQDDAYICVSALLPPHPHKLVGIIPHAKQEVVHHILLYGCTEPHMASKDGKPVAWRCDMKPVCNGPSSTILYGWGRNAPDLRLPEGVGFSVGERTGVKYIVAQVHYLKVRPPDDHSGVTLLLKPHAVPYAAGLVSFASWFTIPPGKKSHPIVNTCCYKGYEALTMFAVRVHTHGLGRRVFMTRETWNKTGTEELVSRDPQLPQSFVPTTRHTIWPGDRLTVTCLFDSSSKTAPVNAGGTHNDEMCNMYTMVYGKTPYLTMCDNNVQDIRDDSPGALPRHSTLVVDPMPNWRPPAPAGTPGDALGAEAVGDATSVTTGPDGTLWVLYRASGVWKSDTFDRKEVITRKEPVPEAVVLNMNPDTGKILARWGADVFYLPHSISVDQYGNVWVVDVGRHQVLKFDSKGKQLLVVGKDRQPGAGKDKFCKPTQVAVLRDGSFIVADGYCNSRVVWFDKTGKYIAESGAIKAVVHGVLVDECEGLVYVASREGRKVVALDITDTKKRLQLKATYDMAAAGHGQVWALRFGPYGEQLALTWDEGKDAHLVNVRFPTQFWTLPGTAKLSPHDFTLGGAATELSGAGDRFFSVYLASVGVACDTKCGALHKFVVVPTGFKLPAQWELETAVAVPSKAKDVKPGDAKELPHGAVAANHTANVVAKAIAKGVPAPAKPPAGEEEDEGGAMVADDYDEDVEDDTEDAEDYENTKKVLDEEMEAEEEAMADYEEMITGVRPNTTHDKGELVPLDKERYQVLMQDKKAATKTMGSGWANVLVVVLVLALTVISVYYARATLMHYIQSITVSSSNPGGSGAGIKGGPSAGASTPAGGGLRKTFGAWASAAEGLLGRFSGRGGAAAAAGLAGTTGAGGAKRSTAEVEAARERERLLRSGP

rat PAM (PHM activity) = target: T2, rat PAM (PHM activity) (Rattus norvegicus, UniProt P14925); test: PHM activity assay in cell lysate; type: biochemical; conditions: mechanism-based PHM inhibitor; PBA added to lysate; vehicle ethanol
T2 construct: rat PAM expressed in mouse corticotropes, cell lysate; PHM domain activity measured
T2 sequence (P14925 36-976): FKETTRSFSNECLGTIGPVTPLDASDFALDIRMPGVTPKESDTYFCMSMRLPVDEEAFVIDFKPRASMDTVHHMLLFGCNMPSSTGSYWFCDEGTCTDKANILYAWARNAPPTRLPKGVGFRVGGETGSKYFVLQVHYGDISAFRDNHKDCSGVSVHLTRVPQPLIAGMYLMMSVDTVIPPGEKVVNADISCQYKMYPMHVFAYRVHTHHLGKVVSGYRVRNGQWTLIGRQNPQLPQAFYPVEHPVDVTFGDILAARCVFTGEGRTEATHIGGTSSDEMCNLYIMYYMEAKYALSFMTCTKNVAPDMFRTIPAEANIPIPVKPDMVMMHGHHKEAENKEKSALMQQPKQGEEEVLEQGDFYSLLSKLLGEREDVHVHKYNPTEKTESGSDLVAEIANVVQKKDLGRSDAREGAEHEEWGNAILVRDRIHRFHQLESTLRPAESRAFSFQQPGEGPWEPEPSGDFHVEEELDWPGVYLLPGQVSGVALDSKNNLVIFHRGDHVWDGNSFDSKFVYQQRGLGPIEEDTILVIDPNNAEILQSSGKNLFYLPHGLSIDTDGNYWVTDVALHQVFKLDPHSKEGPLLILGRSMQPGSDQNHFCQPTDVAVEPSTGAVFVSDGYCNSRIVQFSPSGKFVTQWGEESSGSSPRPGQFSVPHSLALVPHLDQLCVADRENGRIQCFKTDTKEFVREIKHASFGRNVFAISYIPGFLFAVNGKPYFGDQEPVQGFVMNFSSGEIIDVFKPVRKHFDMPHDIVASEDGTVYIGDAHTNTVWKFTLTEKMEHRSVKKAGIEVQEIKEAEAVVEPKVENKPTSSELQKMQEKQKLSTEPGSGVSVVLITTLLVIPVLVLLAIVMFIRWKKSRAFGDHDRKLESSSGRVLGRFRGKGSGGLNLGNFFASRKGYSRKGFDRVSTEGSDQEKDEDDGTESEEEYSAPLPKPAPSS

O=C(O)CC=Cc1ccccc1 [4-phenyl-3-butenoic acid]
PHM specific activity (CrPAM (PHM activity)): did inhibit both mammalian and C. reinhardtii PHM activities | PHM specific activity (rat PAM (PHM activity)): PHM specific activity was greatly reduced in both lysates in the presence of PBA
